Source: patent US7244692B2, “Substituted benzoylcyclohexane diones for use as herbicides” (Bayer Aktiengesellschaft, priority 1999, dated 2007)
Where two headings read alike, the source gives them in different places.

Columns and labels:
[1] = logP determination by HPLC, reverse-phase column (C 18), EEC Directive 79/831 Annex V.A8; assay type: physicochemical
Procedure: Temperature: 43° C. • (a) Mobile phases for the determination in the acidic range: 0.1% aqueous phosphoric acid, acetonitrile; linear gradient from 10% acetonitrile to 90% acetonitrile—the corresponding test results in Table 1 are labelled ^a). • (b) Mobile phases for the determination in the neutral range: 0.01 molar aqueous phosphate buffer solution, acetonitrile; linear gradient from 10% acetonitrile to 90% acetonitrile—the corresponding test results in Table 1 are labelled ^b).

weeds [2] = experiment: Pre-Emergence Test (Example A); assay type: in vivo; details: soil sprayed 24 hours after sowing, rated after three weeks
Procedure: (§1) • Solvent: 5 parts by weight of acetone • Emulsifier: 1 part by weight of alkylaryl polyglycol ether
(§2) To produce a suitable preparation of active compound, 1 part by weight of active compound is mixed with the stated amount of solvent, the stated amount of emulsifier is added and the concentrate is diluted with water to the desired concentration.
Seeds of the test plants are sown in normal soil. After 24 hours, the soil is sprayed with the preparation of active compound such that the particular amount of active compound desired is applied per unit area. The concentration of active compound in the spray liquor is chosen such that the particular amount of active compound desired is applied in 1000 litres of water per hectare.
After three weeks, the degree of damage to the plants is rated in % damage in comparison to the development of the untreated control. The figures denote: • 0%=no effect (like untreated control) • 100%=total destruction

weeds [3] = experiment: Post-Emergence Test (Example B); assay type: in vivo; details: test plants of 5-15 cm sprayed, rated after three weeks
Procedure: as §1, §2
Test plants of a height of 5-15 cm are sprayed with the preparation of active compound such that the particular amounts of active compound desired are applied per unit area. The concentration of the spray liquor is chosen such that the particular amounts of active compound desired are applied in 1000 l of water/ha.
After three weeks, the degree of damage to the plants is rated in % damage in comparison to the development of the untreated control.
The figures denote: • 0%=no effect (like untreated control) • 100%=total destruction

[4] = labelled a): acidic range, 0.1% aqueous phosphoric acid/acetonitrile, linear gradient 10% to 90% acetonitrile, 43° C.
[5] = no a)/b) label printed, mobile phase not given

SMILES	logP [1, 4]	activity against weeds (degree of damage) (weeds [3])	logP [1]	further results
COC(=O)c1ccc(Cl)c(CN2CCN(C)C2=O)c1OC [IV-5]	logP = 1.92^a)			
COC(=O)c1ccc(Cl)c(CN2CCCN(C)C2=O)c1Cl [IV-6]	logP = 2.07^a)			
COc1c(C(=O)C2C(=O)CCCC2=O)ccc(Cl)c1CN1CCCN(C)C1=O [Example 18]	logP = 2.05^a)	strong activity against weeds		activity against weeds (degree of damage) (weeds [2]): strong activity against weeds
CCCCN1CCN(Cc2c(Cl)ccc(C(=O)OC)c2Cl)C1=O [IV-15]				logP [1, 5]: logP = 3.0
CN1CCN(Cc2c(Cl)ccc(C(=O)C3C(=O)CC4(CCC4)CC3=O)c2Cl)C1=O [Example 20]			logP = 2.83^a)	
CN1CCCN(Cc2c(Cl)ccc(C(=O)C3C(=O)CC(C)(C)CC3=O)c2Cl)C1=O [Example 3]	logP = 2.79^a)	strong activity against weeds		activity against weeds (degree of damage) (weeds [2]): strong activity against weeds
CCN1CCN(Cc2c(Cl)ccc(C(=O)C3C(=O)CCC(C)(C)C3=O)c2Cl)C1=O (stereo not shown) [Example 15]			logP = 3.07^a)	
CCN1CCN(Cc2c(S(C)(=O)=O)ccc(C(=O)OC)c2Cl)C1=O [IV-3]	logP = 1.55^a)			
CCN1CCN(Cc2c(Cl)ccc(C(=O)C3C(=O)CC(C)(C)CC3=O)c2Cl)C1=O [Example 14]	logP = 2.96^a)	strong activity against weeds		
CN1CCN(Cc2c(Cl)ccc(C(=O)C3C(=O)CCCC3=O)c2Cl)C1=O [Example 1, 2-[2,4-dichloro-3-[(3-methyl-2-oxo-imidazolidin-1-yl)-methyl]-benzoyl]-1,3-cyclohexanedione]		strong activity against weeds		activity against weeds (degree of damage) (weeds [2]): strong activity against weeds
CN1CCN(Cc2cc(C(F)(F)F)ccc2C(=O)C2C(=O)CCCC2=O)C1=O [Example 51]			logP = 2.41^a)	
CCN1CCN(Cc2cc(C(F)(F)F)ccc2C(=O)C2C(=O)CCCC2=O)C1=O [Example 25]			logP = 2.68^a)	
CCCN1CCN(Cc2c(Cl)ccc(C(=O)OC)c2Cl)C1=O [IV-12]				logP [1, 5]: logP = 2.62
COC(=O)c1ccc(Cl)c(CN2CCN(CC(C)C)C2=O)c1Cl [IV-16]				logP [1, 5]: logP = 2.95
COC(=O)c1ccc(Cl)c(CN2CCN(C(C)C)C2=O)c1Cl [IV-13]				logP [1, 5]: logP = 2.56
CN1CCCN(Cc2c(Cl)ccc(C(=O)C3C(=O)CCC(C)(C)C3=O)c2Cl)C1=O (stereo not shown) [Example 4]	logP = 2.89^a)	strong activity against weeds		activity against weeds (degree of damage) (weeds [2]): strong activity against weeds
CCCN1CCCNC1=O [(VI-15)]			logP = 0.76^a)	
COC(=O)c1ccc(Cl)c(CN2CCCN(C)C2=O)c1OC [IV-10]	logP = 2.03^a)			
COC(=O)c1ccc(S(C)(=O)=O)c(CBr)c1Cl [V-2]			logP = 2.33^a)	
CN1CCN(Cc2c(F)ccc(C(=O)C3C(=O)CCCC3=O)c2Cl)C1=O [Example 24]	logP = 1.96^a)	strong activity against weeds		activity against weeds (degree of damage) (weeds [2]): strong activity against weeds
CN1CCN(Cc2c(Cl)ccc(C(=O)C3C(=O)CCC(C)(C)C3=O)c2Cl)C1=O (stereo not shown) [Example 9]	logP = 2.75^a)	strong activity against weeds		activity against weeds (degree of damage) (weeds [2]): strong activity against weeds
CC(C)C1CC(=O)C(C(=O)c2ccc(Cl)c(CN3CCN(C)C3=O)c2Cl)C(=O)C1 (stereo not shown) [Example 10]	logP = 3.09^a)	strong activity against weeds		
CCN1CCN(Cc2c(Cl)ccc(C(=O)C3C(=O)CC(c4ccccc4)CC3=O)c2Cl)C1=O (stereo not shown) [Example 17]	logP = 3.38^a)	strong activity against weeds		
CCN1CCN(Cc2cc(C(F)(F)F)ccc2C(=O)OC)C1=O [IV-11]	logP = 2.62^a)			

SMILES	logP [1, 4]	activity against weeds (degree of damage) (weeds [3])	logP [1]	further results
CN1CCCN(Cc2c(S(C)(=O)=O)ccc(C(=O)C3C(=O)CCCC3=O)c2Cl)C1=O [Example 41]			logP = 1.73^a)	
CCN1CCN(Cc2c(Cl)ccc(C(=O)C3C(=O)CC(C(C)C)CC3=O)c2Cl)C1=O (stereo not shown) [Example 16]	logP = 3.40^a)	strong activity against weeds		
CCN1CCCCNC1=O [(VI-30)]			logP = 1.09	
CN1CCCN(Cc2c(Cl)ccc(C(=O)C3C(=O)CC(c4ccccc4)CC3=O)c2Cl)C1=O (stereo not shown) [Example 6]	logP = 3.21^a)	strong activity against weeds		
CC(C)CN1CCN(Cc2c(Cl)ccc(C(=O)C3C(=O)CCCC3=O)c2Cl)C1=O [Example 48]			logP = 3.03^a)	
CC(C)C1CC(=O)C(C(=O)c2ccc(Cl)c(CN3CCCN(C)C3=O)c2Cl)C(=O)C1 (stereo not shown) [Example 5]	logP = 3.22^a)	strong activity against weeds		
CCN1CCN(Cc2c(F)ccc(C(=O)C3C(=O)CCCC3=O)c2Cl)C1=O [Example 50]			logP = 2.18^a)	
CCN1CCN(Cc2c(Cl)ccc(C(=O)C3C(=O)CC4(CCC4)CC3=O)c2Cl)C1=O [Example 21]			logP = 3.15^a)	
CN1CCN(Cc2c(Cl)ccc(C(=O)C3C(=O)CC(C)(C)CC3=O)c2Cl)C1=O [Example 8]	logP = 2.67^a)	strong activity against weeds		activity against weeds (degree of damage) (weeds [2]): strong activity against weeds
CCN1CCN(Cc2c(Cl)ccc(C(=O)C3C(=O)CCCC3=O)c2Cl)C1=O [Example 13]	logP = 2.37^a)	strong activity against weeds		activity against weeds (degree of damage) (weeds [2]): strong activity against weeds
COc1c(C(=O)C2C(=O)CCCC2=O)ccc(Cl)c1CN1CCN(C)C1=O [Example 19]			logP = 2.00^a)	
CN1CCN(Cc2c(S(C)(=O)=O)ccc(C(=O)C3C(=O)CCCC3=O)c2Cl)C1=O [Example 22]			logP = 1.70^a)	
CCCN1CCN(Cc2c(Cl)ccc(C(=O)C3C(=O)CCCC3=O)c2Cl)C1=O [Example 46]			logP = 2.69^a)	
CC1CC(=O)C(C(=O)c2ccc(Cl)c(CN3CCCN(C)C3=O)c2Cl)C(=O)C1 (stereo not shown) [Example 2]	logP = 2.55^a)	strong activity against weeds		activity against weeds (degree of damage) (weeds [2]): strong activity against weeds
CN1CCCN(Cc2cc(C(F)(F)F)ccc2C(=O)C2C(=O)CCCC2=O)C1=O [Example 49]			logP = 2.59^a)	
CCCN1CCNC1=O [(VI-5)]			0.55^a)	
CCN1CCN(Cc2c(S(C)(=O)=O)ccc(C(=O)C3C(=O)CCCC3=O)c2Cl)C1=O [Example 23]			logP = 1.91^a)	
CCN1CCN(Cc2c(Cl)ccc(C(=O)C3C(=O)CC(C)CC3=O)c2Cl)C1=O (stereo not shown) [Example 12]	logP = 2.71^a)	strong activity against weeds		activity against weeds (degree of damage) (weeds [2]): strong activity against weeds
COC(=O)c1ccc(S(C)(=O)=O)cc1CBr [V-6]			logP = 1.87^a)	
CN1CCN(Cc2c(Cl)ccc(C(=O)C3C(=O)CC(c4ccccc4)CC3=O)c2Cl)C1=O (stereo not shown) [Example 11]	logP = 3.10^a)	strong activity against weeds		
CCN1CCN(Cc2c(Cl)ccc(C(=O)OC)c2Cl)C1=O [IV-2]	logP = 2.26^a)			
COC(=O)c1ccc(S(C)(=O)=O)c(CN2CCN(C)C2=O)c1Cl [IV-4]	logP = 1.55^a)			
CC1CC(=O)C(C(=O)c2ccc(Cl)c(CN3CCN(C)C3=O)c2Cl)C(=O)C1 (stereo not shown) [Example 7]	logP = 2.43^a)	strong activity against weeds		activity against weeds (degree of damage) (weeds [2]): strong activity against weeds
CCCCN1CCN(Cc2c(Cl)ccc(C(=O)C3C(=O)CCCC3=O)c2Cl)C1=O [Example 47]			logP = 3.08^a)	
